This note sets out measurements from patent US20220064138A1, “MACROLIDE BREFELDIN A ESTER DERIVATIVES AND USE THEREOF” (OCEAN UNIVERSITY OF CHINA, priority 2019, published 2022).

Molecules are shown by their SMILES. Values after ≈ are worked out from the molar mass of the structure shown.

The test system of series [1] is human gastric cancer MKN-45 cells. Put plainly: Cell proliferation assay (CCK-8). Type of series: cell-based. The settings on record: MKN-45, 72 h. The method, boiled down: (§1)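 Log-phase cells are plated at 5000/well and incubated 24 h. Compounds in DMSO (≤2‰ final) are added in duplicate for 72 h. Viability is then read as formazan absorbance at 450 nm after 1.5–3 h with CCK-8, and IC50 is fitted by log(inhibitor) vs response, variable slope.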

For series [2], the system named is Human cervical cancer Hela cells. Kind of series: Cell proliferation assay (CCK-8). Type of series: cell-based. The settings on record: 72 h. Summed up:
as §1

Series [3] relates to human leukemia K562 cells. Kind of series: Cell proliferation assay (CCK-8). Type of series: cell-based. The settings on record: K562, 72 h. Summed up:
as §1

Series [4] deals with esophageal cancer Eca-109 cells. Put plainly: Cell proliferation assay (CCK-8). The settings on record: Homo sapiens, Eca-109, 72 h. The series is classed as cell-based. The method, boiled down: as §1
Series [5] has as its system human breast cancer MCF7 cells. Kind of series: Cell proliferation assay (CCK-8). Type of series: cell-based. The settings on record: MCF7, 72 h. The method, boiled down:
as §1

Series [6] deals with pancreatic cancer PANC-1 cells. Put plainly: Cell proliferation assay (CCK-8). Type of series: cell-based. The settings on record: Homo sapiens, PANC-1, 72 h. Summed up:
as §1

Series [7] concerns human lung cancer A549 cells. Kind of series: Cell proliferation assay (CCK-8). Type of series: cell-based. The settings on record: A549, 72 h. The method, boiled down:
as §1

Series [8] relates to human liver cancer HepG2 cells. Kind of series: Cell proliferation assay (CCK-8). The series is classed as cell-based. The settings on record: HepG2, 72 h. Summed up:
as §1

For a further series, the system named is Kunming breed mice. Put plainly: Toxicity test after intraperitoneal administration to mice. The series is classed as in vivo. The settings on record: 14 d; for Deaths: high and low doses (BFA effective amount conversion), ip., mice; for Mental condition of the animals after administration / Results of anatomy: abnormality in organs: male, Kunming, mouse, in vivo, ip. The procedure:
Objective: Observation of toxic effects of compounds after intraperitoneally administration (ip.) to mice
1) Agents: Compounds disclosed herein were formulated to a suitable concentration.
2) Animals: Kunming breed mice, weight 18-22 g, male. Provided by Jinan Pengyue Laboratory Animal Breeding Co., Ltd. Animal license number: SCXK (Shandong 20140007)
Method: Kunming breed mice, were randomly grouped by weight, 6 mice per group, namely normal control group, BFA high and low dose groups (100 mg/kg and 50 mg/kg, respectively), and high and low dose groups of some compounds disclosed herein (BFA effective amount conversion). […] After 14 d of continuous administration, all the animals were weighed, and the animals were executed to observe whether there were any abnormalities in the organs.

A short description of series [9]: Solubility test (shaking 24 h at 37° C., HPLC).
Method: Methods: Excess BFA and the compounds disclosed herein were added to 10 mL of three solvents, methanol, acetone and 5% DMSO+95% H2O, respectively, and shaken on a shaker at 37° C. at 100 r/min for 24 h. After 24 h, the samples were centrifuged at 15 000 r/min for 15 min to remove the undissolved compounds. The supernatant was filtered using a 0.45 μm membrane filter. The supernatant was appropriately diluted with methanol and contents of the compounds were determined by HPLC method to calculate the solubility.

As for `C[C@H]1CCC/C=C/[C@@H]2C[C@H](OC(=O)/C=C/c3ccc(N(C)C)cc3)C[C@H]2[C@H](OC(=O)/C=C/c2ccc(N(C)C)cc2)/C=C/C(=O)O1` [Compound 10c, 4,7-O-bis(4-dimethylaminocinnamic acid)acyl BFA], the concentration for half-maximal inhibition (IC50) (usually the concentration at which inhibition is half-maximal) in series [1] was 100 to 1000 nM; in series [2], 1000 to 10000 nM; in series [3], 100 to 1000 nM; in series [4] it was 1 to 10 µM; in series [5], 1000 to 10000 nM; in series [6], 1000 to 10000 nM. Moreover, the concentration for half-maximal inhibition (IC50) in [7] lay in the range of 100 to 1000 nM; in series [8], 1000 to 10000 nM. Moreover, in the series on Kunming breed mice, the Deaths entry is listed as “no deaths”. In addition, in the series on Kunming breed mice, the “Mental condition of the animals after administration” value (from here on “Mental condition of the animals”) is given as “good mental condition”. Besides, the “Results of anatomy: abnormality in organs” value with Kunming breed mice is reported as “no significant abnormality in all organs”. For the same compound, the solubility – broadly, how much of the substance goes into solution per volume – at 24 h in series [9] (5% DMSO + 95% H2O) stood at 0.44 ± 0.08 mg/mL; in [9] (acetone), 12.5 ± 0.92 mg/mL (≈ 20 mM); in series [9] (methanol) it was 13.3 ± 0.91 mg/mL (≈ 21.3 mM).

Turning to `C[C@H]1CCC/C=C/[C@@H]2C[C@H](O)C[C@H]2[C@H](OC(=O)/C=C/c2ccc(N(C)C)cc2)/C=C/C(=O)O1` [Compound 10b, 4-O-(4-dimethylaminocinnamic acid)acyl BFA], the IC50 was in the range of 100 to 1000 nM in series [1]; 100 to 1000 nM in series [2]; 100 to 1000 nM in series [3]; 1 to 10 µM in series [4]; 100 to 1000 nM in series [5]; 100 to 1000 nM in series [6]. Moreover, the concentration for half-maximal inhibition (IC50) in series [7] and in series [8] was 100 to 1000 nM each time. Besides, in the series on Kunming breed mice, the Deaths entry is on record as “no deaths”. For the same compound, the “Mental condition of the animals” value with Kunming breed mice was “good mental condition”. For the same compound, the “Results of anatomy: abnormality in organs” value in the series on Kunming breed mice is listed as “no significant abnormality in all organs”. In addition, the solubility at 24 h in series [9] (5% DMSO + 95% H2O) turned out to be 0.72 ± 0.13 mg/mL; in series [9] (acetone) it was 23.2 ± 1.32 mg/mL (≈ 51.1 mM); in series [9] (methanol), 24.2 ± 1.22 mg/mL (≈ 53.3 mM).

As to `C[C@H]1CCC/C=C/[C@@H]2C[C@H](OC(=O)/C=C/c3cccc(F)c3)C[C@H]2[C@H](O)/C=C/C(=O)O1` [Compound 1a, 7-O-(3-fluorocinnamic acid)acyl BFA], the IC50 was 100 to 1000 nM in series [1]; 1000 to 10000 nM in series [2]; 100 to 1000 nM in series [3]; 1 to 10 µM in series [4]; 100 to 1000 nM in [5]; 100 to 1000 nM in [6]. Besides, the IC50 in series [7] and in series [8] was 100 to 1000 nM in each case. For the same compound, the Deaths entry with Kunming breed mice is on record as “no deaths”. Moreover, the “Mental condition of the animals” value with Kunming breed mice is listed as “good mental condition”. The “Results of anatomy: abnormality in organs” value in the series with Kunming breed mice is given as “no significant abnormality in all organs”. Further, the solubility at 24 h was found to be 0.33 ± 0.13 mg/mL in series [9] (5% DMSO + 95% H2O), 21.9 ± 1.53 mg/mL (≈ 51.1 mM) in series [9] (acetone) and 21.3 ± 1.52 mg/mL (≈ 49.8 mM) in [9] (methanol).

Turning to `C[C@H]1CCC/C=C/[C@@H]2C[C@H](OC(=O)/C=C/c3cccc(F)c3)C[C@H]2[C@H](OC(=O)/C=C/c2cccc(F)c2)/C=C/C(=O)O1` [Compound 1c, 4,7-O-bis(3-fluorocinnamic acid)acyl BFA], the 50% inhibitory concentration (IC50) in series [1] is 100 to 1000 nM; in series [2], 1000 to 10000 nM; in series [3], 100 to 1000 nM; in series [4] it was 1 to 10 µM; in [5], 1000 to 10000 nM; in series [6], 1000 to 10000 nM. In addition, the concentration for half-maximal inhibition (IC50) in [7] and in series [8] was 1000 to 10000 nM throughout. In addition, the Deaths result in the series with Kunming breed mice was “no deaths”. Also, in the series on Kunming breed mice, the “Mental condition of the animals” value is reported as “good mental condition”. Besides, in the series on Kunming breed mice, the “Results of anatomy: abnormality in organs” value is on record as “no significant abnormality in all organs”. Moreover, the solubility at 24 h in series [9] (5% DMSO + 95% H2O) worked out at 0.2 ± 0.91 mg/mL; in series [9] (acetone), 12.1 ± 0.91 mg/mL (≈ 21.1 mM); in series [9] (methanol), 12.2 ± 1.59 mg/mL (≈ 21.2 mM).
